This assay deals with T1, angiotensin converting enzyme (Oryctolagus cuniculus, UniProt P12822).
T1 sequence (P12822 34-1310): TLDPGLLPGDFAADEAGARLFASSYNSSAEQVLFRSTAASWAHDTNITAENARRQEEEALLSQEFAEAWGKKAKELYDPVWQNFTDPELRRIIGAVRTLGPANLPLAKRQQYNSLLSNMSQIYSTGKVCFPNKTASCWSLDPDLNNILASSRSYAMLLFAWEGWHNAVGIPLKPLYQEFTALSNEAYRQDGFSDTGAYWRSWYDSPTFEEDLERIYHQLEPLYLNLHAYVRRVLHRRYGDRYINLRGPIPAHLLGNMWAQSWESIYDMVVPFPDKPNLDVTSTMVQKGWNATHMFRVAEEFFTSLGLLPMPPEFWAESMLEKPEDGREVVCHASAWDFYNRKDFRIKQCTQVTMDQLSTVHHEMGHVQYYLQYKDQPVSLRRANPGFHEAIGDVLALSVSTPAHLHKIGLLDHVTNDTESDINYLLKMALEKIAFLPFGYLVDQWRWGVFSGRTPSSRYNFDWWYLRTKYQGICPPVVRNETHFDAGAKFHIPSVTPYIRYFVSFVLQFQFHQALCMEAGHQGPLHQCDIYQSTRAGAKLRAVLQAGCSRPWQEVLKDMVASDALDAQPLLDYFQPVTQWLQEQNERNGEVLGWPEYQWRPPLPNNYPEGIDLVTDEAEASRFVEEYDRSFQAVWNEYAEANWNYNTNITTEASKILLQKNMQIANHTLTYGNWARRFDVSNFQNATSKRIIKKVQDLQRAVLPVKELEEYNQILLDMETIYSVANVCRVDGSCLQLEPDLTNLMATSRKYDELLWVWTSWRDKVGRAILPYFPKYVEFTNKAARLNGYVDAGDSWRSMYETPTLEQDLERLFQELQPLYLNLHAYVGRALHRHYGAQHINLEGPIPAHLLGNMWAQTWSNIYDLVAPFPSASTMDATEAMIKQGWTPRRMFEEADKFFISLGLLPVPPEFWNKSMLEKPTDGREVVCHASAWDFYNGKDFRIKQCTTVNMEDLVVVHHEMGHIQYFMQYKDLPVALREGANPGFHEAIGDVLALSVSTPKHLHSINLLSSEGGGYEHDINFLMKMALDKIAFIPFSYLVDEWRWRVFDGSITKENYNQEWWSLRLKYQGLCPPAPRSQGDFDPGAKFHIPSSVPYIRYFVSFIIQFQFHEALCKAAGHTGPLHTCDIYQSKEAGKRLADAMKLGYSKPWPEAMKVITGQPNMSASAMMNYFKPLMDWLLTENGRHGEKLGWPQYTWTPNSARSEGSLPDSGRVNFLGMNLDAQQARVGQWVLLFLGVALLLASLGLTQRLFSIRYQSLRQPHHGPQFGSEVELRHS
Briefly: in vitro inhibition of angiotensin converting enzyme (hippuryl-histidyl-leucine cleavage). The assay is classed as biochemical. As to conditions: substrate hippuryl-histidylleucine 2 mM, pH 8.3, 24 minutes at 37° C.; esters cleaved by hog liver esterase before test. How it is done:
The activity of the present compounds in inhibiting angiotensin converting enzyme in vitro can be determined by the following test.
The method used is based on the method of Cushman and Cheung (Biochem. Pharmacol., 20. 1637-1648) incorporating the modifications introduced by Hayakari et al (Anal. Biochem., 84. 361-369). The substrate (hippuryl-histidylleucine, 2 mM) is incubated with angiotensin converting enzyme in the presence or absence of various concentrations of test substance in potassium phosphate buffer (pH 8.3; 100 mM) containing sodium chloride (300 mM) for 24 minutes at 37° C. (total value 500 μl). (if the test substance is an ester, it is appropriate to cleave it by means of hog liver esterase before carrying out the test). The reaction is terminated by the addition of 3 ml of potassium phosphate buffer (pH 8.3; 200 mM) at 0° C. 2,4,6-Trichloro-s-triazine (3%) in 1.5 ml of dioxan is added and the mixture is agitated until the yellow chromophore has developed fully. The samples are then centrifuged to remove any precipitate which has formed. The yellow chromophore formed by the reaction of the 2,4,6-trichloro-s-triazine with free hippuric acid is measured spectrophotometrically at 382 nm. […]

What is called IC50 is the concentration that gives 50% inhibition. Read a high IC50 as lower potency. `O=C(O)[C@@H]1CCCN2CCC[C@H](CP(=O)(O)O)C(=O)N12` [Compound A, Octahydro9(S)--phosphonomethyl10-oxo-6H--pyridazo[1,2a][1,2]diazepine1(S)-carboxylic acid] displayed an IC50 of 9.6 nM. This lies in the single-digit nanomolar range.
